Details of data set [1]: method as in hazardous substances data bank. The note with it: 25 °C; ref hazardous substances data bank; cited from earlier work.
The nature of data set [2]: Kinetic radii from DOSY NMR (Stokes-Einstein equation). The data set is classed as physicochemical.
Data set [3] can be described thus: Hansen solubility parameters (HSP) from rated solvent library, optimized in HSPiP; Ra and RED versus water. Type of data set: physicochemical. An excerpt: To figure out why the doped N/O heteroatoms on the aromatic skeletons can both influence their hydrophilicity and aqueous solubility, we employed the Hansen solubility parameters (HSP) to interpret this phenomenon. This method developed by Charles Hansen et al.[30] has found broad use both in academia and industry for predicting the compatibility or affinity between two substances[31]–[34]. The key elements of HSP approach are three partial solubility parameters consisting of δD, δP, and δH, in which δD represents the dispersion solubility parameter, δP represents the polar solubility parameter, and δH represents the hydrogen bonding solubility parameter, respectively.
The three partial parameters define a three-dimensional coordinate for substances in a virtual solubility space (Hanse space). In principle, the closer the two coordinates of HSP are, the more likely the substances will dissolve in each other, which is consistent with the notion of “like dissolves like” rule. To better describe the degree of closeness, another solubility parameter “distance” (Ra) is introduced as follows:1 Ra2=4(δD2−δD1)^2+(δP2−δP1)^2+(δH2−δH1)^2 […]
Meanwhile, each substance has an intrinsic distance parameter R0, together with HSP as a center point that would define a solubility sphere in Hansen space. If the HSP coordinate of one substance is located inside the sphere of another substance, it indicates a high affinity between them. For solute and solvent cases, a dissolution process may happen. Otherwise, a low affinity is inferred if one substance is excluded from the sphere of another.
The total HSP data set of C1-C12 was experimentally tested and optimized from a combination of solvents library and listed in Table 1 (Supplementary Methods 1.3, Supplementary Fig. 1). […] For the unique H2O, there are three sets of HSP for different conditions. The first is the HSP of single-molecule (pure) water (15.5, 16.0, 42.3), in which the δH is more salient than δD and δP, it well explains the strong hydrogen bonding interactions between water molecules. However, its use in the prediction of solubility in water is not deemed appropriate in most cases. The second and third sets of HSP for water are those derived from solubility data and should be chosen case by case. The second set of HSP (15.1, 20.4, 16.5) was derived from experimental data set exceeding 1% soluble compounds in water, which may be appropriate for the diluted solute case (denoted as Water1). The third set of HSP (18.1, 17.1, 16.9) was derived from experimental data set of complete miscible compounds with water, which may be appropriate for the dense solute case (denoted as Water2).
1.3 Determination of solubility-related parameters […]
(2) Determination of Hansen solubility parameters (HSP)3
A collection of solvents was used to estimate the HSPs values of C2–C12, which includes dichloromethane, chloroform, toluene, diethyl ether, hexane, dioxane, pyridine, tetrahydrofuran, dimethyl sulfoxide, N, N-dimethyl formamide, acetone, acetonitrile, methanol and ethanol. If the specific solvent (0.5 mL) can dissolve at least 1.0 mg of certain solute would be rated as good solvent, otherwise as bad solvent. For C1, it’s expected that this molecule can only dissolve in nonpolar solvents (recrystallized from CCl4 according to literature report). We […]
methanol, ethanol and water would be bad solvents. These rated solvent s datasets for C1–C12 were imported to HSPiP software that developed by Dr. Hansen, Abbott and Hiroshi to optimize and obtain three partial HSPs values.

Data set [4] can be described thus: AFM measurement of nanoparticles in wet conditions. The data set is classed as physicochemical. Particulars: aqueous solution 1.5 mM on mica. Here is the method: To further confirm the aggregation-induced nanoparticles formed in water, we carried out atomic force microscope (AFM) measurement of C10-C12 in wet conditions[35] (Fig. 2c and Supplementary Figs. 29–31). Typically, a drop of aqueous solution of C11 (1.5 mM) was cast on a freshly cleaved mica surface and subjected to test. […] 2D and 3D height profiles gave a particle size around 8 nm.

A short description of data set [5]: Shake-flask thermodynamic aqueous solubility (1H NMR quantification). Particulars: water, thermodynamic from solid, D2O, room temperature, 24 h. The data set is classed as physicochemical. An excerpt:
(§1) With the 12 combinatorial molecules in hand, we initially examined their hydrophilicity and aqueous solubility. The water-contact angle test gave a clear hydrophilic assessment for these molecules (Table 1 and Supplementary Table 1). The conventional shake-flask method was employed to obtain the thermodynamic aqueous solubility data[29]. […]. In pursuit of both improving the hydrophilicity and aqueous solubility, we planned to introduce dual N/O heteroatoms to C1 skeleton as listed in group 2. […]. The turning point comes to C9 that doping two N atoms on the phenanthrene subcomponent besides the oxazole part. A water contact angle of 0° indicates the high hydrophilicity of C9. […].
1.3 Determination of solubility-related parameters
(1) Measurement of aqueous solubility
We applied the classic shake-flask method to determine the solubility data of C2–C12 in water. Typically, an excess amount of C2 was added to 1.0 mL of D2O, and the mixture was stirred at room temperature for 24 h. After that, the phase separation of saturated solution was finished through centrifugation. 1H NMR technology was applied to quantitatively analysis the concentration of solute using tetrahydrofuran as internal standard. Actually, we didn’t synthesize C1 to obtain its solubility data from experimental method because it’s obvious that this compound would be insoluble in water from reasonable judgement. Alternatively, due to its high hydrophobicity and measured water solubility data from C2–C8 counterpart, we can estimate this value must be at least lower than 0.1 mg / mL as well. […]

A short description of data set [6]: Apparent association constants by 1H NMR shift analysis (dimeric model). Type of data set: physicochemical. An excerpt: As is known, high concentration as a driving force to promote the molecular aggregation in solution is ubiquitous and well recognized[37],[38]. To compare the high concentration induced aggregation phenomenon with our case, we measured their apparent association constants (Ka) by ^1H NMR shift analysis after simplifying the aggregates to a dimeric model[39] (Supplementary Figs. 17–28). As listed in Fig. 3b, C10-C12 in chloroform display relatively weak association ability induced by high concentration factor. […] Meanwhile, the ^13C NMR spectra gave more informative details about C10-C12 in different existing states (Fig. 3c, Supplementary Figs. 13 and 14). […] In comparison, these signals became broadened and moved to upfield with a maximal 3.19 ppm shift in D2O conditions, which was almost in consistent with the solid-state ^13C magic-angle spinning (MAS) NMR spectrum despite its much broader signature. Moreover, the luminescent emissions of C10-C12 in various solvent ratios and solid-state were also screened (Fig. 3d, Supplementary Figs. 33 and 34). […] Unexpectedly, the maximal emissions in water are close to the solid state of C10-C12 (e.g., 472 nm in water versus 486 nm in solid for C10), indicative of a homologous excited-state energy transfer pathway.

The next data set is described as follows: Water-contact angle test. The data set is classed as physicochemical. The note with it: C2-C12.
From the text: as §1
Supplementary Table 1. Collected water contact angles for C2 – C12 […]

[7] abbreviates: experimentally rated solvent library, HSPiP.

In brackets after ≈: the same amount, converted by molar mass.

In the case of `c1cnccn1` [pyrazine], the “Aqueous solubility” value in data set [1] is given as “freely soluble in water”.
Turning to `c1cncc(-c2nc3c4cccnc4c4ncccc4c3o2)c1` [C11], the “kinetic radius, DOSY” value in data set [2] (D2O) stood at 3.98 nm. In addition, the “kinetic radius, DOSY” value in data set [2] (MeOD-d4) worked out at 0.65 nm. In data set [3] (distance to water HSP of dense condition (18.1, 17.1, 16.9)), the Water2 Ra was 10.2 MPa^0.5. For the same compound, the Water1 Ra in data set [3] (distance to water HSP of dilute condition (15.1, 20.4, 16.5)) came out at 14.9 MPa^0.5. In data set [3] (setting [7]), the “δD (dispersion solubility parameter)” value is recorded as 18.3 (MPa)^0.5, the “δH (hydrogen bonding solubility parameter)” value is given as 15.9 (MPa)^0.5 and the “δP (polar solubility parameter)” value is 7.0 (MPa)^0.5. Further, in data set [3] (experimentally rated solvent library, HSPiP, unit assumed), the R0 (intrinsic distance parameter) was 11 MPa^0.5. The “Water1 RED (Ra/R0)” value in data set [3] (water HSP of dilute condition (15.1, 20.4, 16.5)) is reported as 1.4. For the same compound, the “average diameter of nanoparticles (AFM statistical analysis)” value in data set [4] is 8.32 nm. The same compound gave a solubility at 24 h in data set [5] of 13 mg/mL (≈ 43.6 mM). Besides, in data set [6] (CHCl3, dimeric model), the “Ka (CHCl3), apparent association constant” value is given as 6(1) M^-1. Also, in data set [6] (MeOH-H2O (legend: H2O), dimeric model), the “Ka (MeOH-H2O), apparent association constant” value is on record as 850(50) M^-1. Moreover, in the data set “Water-contact angle test”, the Water contact angle was found to be 0 °.

As usually defined, the solubility is the dissolved amount per volume that the medium holds. Low readings indicate a poorly soluble substance, high ones a readily soluble substance.

The values are drawn from publication PMC9814590, “Precise heteroatom doping determines aqueous solubility and self-assembly behaviors for polycyclic aromatic skeletons” (Communications Chemistry, 2022).
